# Experimental data from US7816409B2, “Stable pharmaceutical composition of fluoroether compound for anesthetic use method for stabilizing a fluoroether compound, use of stabilizer agent for precluding the degradation of a fluoroether compound” (Cristalia Productos Quimicos Farmaceuticos LTDA, priority 2003, dated 2010).
# Key:
# [1] = Stress degradation of sevoflurane with or without alumina, gas chromatography with toluene internal standard; format: physicochemical
# Protocol: In the following examples, all analyses by gas chromatography were carried out by adding 2 μL of toluene (internal standard) in 10 mL of sample of sevoflurane in study. The analysis was done in duplicates and for each chromatogram obtained was calculated the ratio of the area of each impurity/area of toluene.
# In two type III glass bottle with capacity of 100 mL, was added 20 mL of anhydrous sevoflurane and in one of the bottles was added 20 mg of alumina totalizing 1.0 mg of Al2O3 per mL of sevoflurane. Both bottles were closed with a stopper and screw metallic cap and heated in a stove at 60° C. for 22 hours. After that period, the samples were analyzed in duplicates by gas chromatography using the internal standard addition method (toluene). […] The degradation products of sevoflurane monitored by gas chromatography, HFIP, Acetal, 2, 5, 7 and 8, are present in high amounts in the samples of sevoflurane containing alumina after heating, as presented in FIG. 4.
# The samples were prepared and placed in type III glass bottle and the bottles were closed with stopper and screw metallic cap.
# The samples were submitted to two stress conditions by heating in stove at 60° C. for a cycle of 22 hours and other of 72 hours.
# The sample was prepared to contain 0, 50, 200, 600, 1000 and 1400 ppm of the stabilizer agent. […] The study comprises put sevoflurane in contact with an acid substance, submits the samples to a stress by heating at 60° C. for 22 hours and, by comparison evaluates the chromatographic purity of sevoflurane after stress. The activated alumina was employed as acid substance in a constant quantity of 1 mg per mL of sevoflurane.
# In type III glass bottle with capacity for 100 mL was transferred 20 mL of test sevoflurane containing determined quantities of the stabilizer agent (0, 50, 200, 600, 1000 and 1400 ppm) and 20 mg of alumina. The bottles were immediately closed with a stopper and a screw metallic cap. These bottles were heated in a stove at 60° C. for 22 hours. After the stress the samples were analyzed in duplicate by gas chromatography using the internal standard addition method (toluene). In parallel, studies were done with the quantity determined of the stabilizer (0, 50, 200, 600, 1000 and 1400 ppm) without alumina.
# Table 2 resumes the tests realized with the agents propylene glycol and menthol proposed for the stabilization of sevoflurane against the degradation by alumina and the results for total impurity and for the single impurity HFIP obtained with and without alumina after stress at 60° C. for 22 hours. The total impurity is the sum of the ratio between the area for each impurity and the area of the internal standard (toluene) and HFIP is the ratio between the area of HFIP and the area of toluene obtained in the chromatograms.
# [2] = Saturation level / solubility of stabilizer in sevoflurane
# Excerpt: The stabilizer agent for the fluoroether compound, and most particularly for the sevoflurane, is employed in concentration ranging from 0.001% in weight in relation to the weight of sevoflurane until its level of saturation in the sevoflurane, that is, the maximum concentration in which it keeps soluble in the sevoflurane. The amount of stabilizer agent to achieve its saturation depends on the stabilizer and temperature, and can be high due to the solubility profile among these substances.
# Among the appropriate polyalcohols to the stabilization of the fluoroether compound sevoflurane, propylene glycol, polyethylene glycol, hexylene glycol and 1,3-butileneglycol are chosen. […] As cited before, the amount of the stabilizer agent will range from 0.001% in weight until its saturation level in sevoflurane. […] Therefore, in a general way, the polyalcohols are preferably employed in amounts ranging from 0.001% to 5.0% in weight in relation to the weight of sevoflurane.
# [3] = Chromatographic purity and impurities of sevoflurane after stress with alumina (Pharmacopeial Forum USP specifications); format: physicochemical; conditions: for degradation of sevoflurane by alumina: Example 5, 260 ppm stabilizer
# Protocol: (§1) In this study alumina was employed in a final concentration of 1 mg per mL of sevoflurane.
# (§2) Alumina was employed in a final concentration of 1 mg per mL of sevoflurane.
# [4] = Limit of fluoride in sevoflurane after stress with alumina; format: physicochemical
# Protocol: as §1
# Another important factor observed in the present study is the quantity of fluoride in the sample submitted to stress.
# as §2
# [5] = anhydrous sevoflurane, stabilizer 0 ppm, 60° C. for 22 hours, 0 mg of Al2O3
# [6] = anhydrous sevoflurane, stabilizer 0 ppm, 60° C. for 22 hours, 20 mg of Al2O3
# [7] = anhydrous sevoflurane, stabilizer 50 ppm, 60° C. for 22 hours, 0 mg of Al2O3
# [8] = anhydrous sevoflurane, stabilizer 50 ppm, 60° C. for 22 hours, 20 mg of Al2O3
# [9] = anhydrous sevoflurane, stabilizer 200 ppm, 60° C. for 22 hours, 0 mg of Al2O3
# [10] = anhydrous sevoflurane, stabilizer 200 ppm, 60° C. for 22 hours, 20 mg of Al2O3
# [11] = anhydrous sevoflurane, stabilizer 600 ppm, 60° C. for 22 hours, 0 mg of Al2O3
# [12] = anhydrous sevoflurane, stabilizer 600 ppm, 60° C. for 22 hours, 20 mg of Al2O3
# [13] = anhydrous sevoflurane, stabilizer 1000 ppm, 60° C. for 22 hours, 0 mg of Al2O3
# [14] = anhydrous sevoflurane, stabilizer 1000 ppm, 60° C. for 22 hours, 20 mg of Al2O3
# [15] = anhydrous sevoflurane, stabilizer 1400 ppm, 60° C. for 22 hours, 0 mg of Al2O3
# [16] = anhydrous sevoflurane, stabilizer 1400 ppm, 60° C. for 22 hours, 20 mg of Al2O3
# [17] = alumina 1 mg per mL, 60° C. for 22 hours
# [18] = Table 4, sevoflurane with 260 ppm stabilizer, alumina 1 mg per mL, 60° C. for 22 hours
# [19] = Table 6, sevoflurane with water 260 ppm or PG + water 260:260 ppm, alumina 1 mg per mL, 60° C. for 22 hours
# [20] = Table 5, sevoflurane with 260 ppm stabilizer, alumina 1 mg per mL, 60° C. for 22 hours
# [21] = sevoflurane, stabilizer 50 ppm, stress at 60° C. for 12 hours, 0 mg of Al2O3
# [22] = sevoflurane, stabilizer 50 ppm, stress at 60° C. for 12 hours, 20 mg of Al2O3
# [23] = Table 4, initial analysis of anhydrous sevoflurane before stress
# [24] = Table 6, initial analysis of anhydrous sevoflurane before stress
compound,measurement,setting,value
"CC1CCC(C(C)C)C(O)C1 (stereo not drawn) [MENTHOL, (1 alpha, 2 beta, 5 alpha)-5-methyl-2-(1-methylethyl)cyclohexanol]",HFIP (average ratio area of HFIP/area of toluene),[1]; [5],0.0408
same,Total Impurity (average sum of ratios area of each impurity/area of toluene),[1]; [5],0.3083
same,HFIP (average ratio area of HFIP/area of toluene),[1]; [6],0.8914
same,Total Impurity (average sum of ratios area of each impurity/area of toluene),[1]; [6],37.5478
same,HFIP (average ratio area of HFIP/area of toluene),[1]; [7],0.04541
same,Total Impurity (average sum of ratios area of each impurity/area of toluene),[1]; [7],0.3174
same,HFIP (average ratio area of HFIP/area of toluene),[1]; [8],0.6402
same,Total Impurity (average sum of ratios area of each impurity/area of toluene),[1]; [8],1.0412
same,HFIP (average ratio area of HFIP/area of toluene),[1]; [9],0.04228
same,Total Impurity (average sum of ratios area of each impurity/area of toluene),[1]; [9],0.2918
same,HFIP (average ratio area of HFIP/area of toluene),[1]; [10],0.5880
same,Total Impurity (average sum of ratios area of each impurity/area of toluene),[1]; [10],1.0773
same,HFIP (average ratio area of HFIP/area of toluene),[1]; [11],0.04445
same,Total Impurity (average sum of ratios area of each impurity/area of toluene),[1]; [11],0.3319
same,HFIP (average ratio area of HFIP/area of toluene),[1]; [12],0.4426
same,Total Impurity (average sum of ratios area of each impurity/area of toluene),[1]; [12],1.0001
same,HFIP (average ratio area of HFIP/area of toluene),[1]; [13],0.04669
same,Total Impurity (average sum of ratios area of each impurity/area of toluene),[1]; [13],0.3627
same,HFIP (average ratio area of HFIP/area of toluene),[1]; [14],0.3787
same,Total Impurity (average sum of ratios area of each impurity/area of toluene),[1]; [14],0.9486
same,HFIP (average ratio area of HFIP/area of toluene),[1]; [15],0.04325
same,Total Impurity (average sum of ratios area of each impurity/area of toluene),[1]; [15],0.3644
same,HFIP (average ratio area of HFIP/area of toluene),[1]; [16],0.3329
same,Total Impurity (average sum of ratios area of each impurity/area of toluene),[1]; [16],1.0156
same,saturation level in sevoflurane,[2],about 6.8%
O [Water],water content from which degradation of sevoflurane by alumina is inhibited,"[1]; Example 2, alumina 1 mg per mL, 60° C.",≥ 600 ppm
same,degradation of sevoflurane by alumina,"[1]; Example 4, 50 ppm stabilizer, alumina 1 mg per mL",incapable to completely inhibit
same,increase of impurity HFIP value in relation to the sample without alumina,"[1]; sevoflurane containing water, with alumina",about 10 times
same,degradation of sevoflurane by alumina,[3]; [17],didn't inhibit the degradation
same,Compound A,[3]; [18],11.8 µg/g
same,Purity,[3]; [18],99.8944%
same,Single impurity,[3]; [18],403 µg/g
same,Total Impurity,[3]; [18],1056.1 µg/g
same,Purity,[3]; [19],99.8899%
same,Single impurity,[3]; [19],422.8 µg/g
same,Total impurities,[3]; [19],1101.3 µg/g
same,Limit of fluoride,[4]; [20],16.950 µg/mL
same,Limit of fluoride,[4]; [19],15.340 µg/mL
PEG 400,solubility in sevoflurane,[2],freely soluble
"CC(O)CO (centres unmarked) [Propylene glycol, 1,2-propanediol]",HFIP (average ratio area of HFIP/area of toluene),[1]; [5],0.0491
same,Total Impurity (average sum of ratios area of each impurity/area of toluene),[1]; [5],0.3304
same,HFIP (average ratio area of HFIP/area of toluene),[1]; [6],0.6680
same,Total Impurity (average sum of ratios area of each impurity/area of toluene),[1]; [6],31.65
same,HFIP (average ratio area of HFIP/area of toluene),[1]; [7],0
same,Total Impurity (average sum of ratios area of each impurity/area of toluene),[1]; [7],0.3293
same,HFIP (average ratio area of HFIP/area of toluene),[1]; [8],0.05996
same,Total Impurity (average sum of ratios area of each impurity/area of toluene),[1]; [8],0.3925
same,HFIP (average ratio area of HFIP/area of toluene),[1]; [9],0.04474
same,Total Impurity (average sum of ratios area of each impurity/area of toluene),[1]; [9],0.3546
same,HFIP (average ratio area of HFIP/area of toluene),[1]; [10],0.04072
same,Total Impurity (average sum of ratios area of each impurity/area of toluene),[1]; [10],0.2823
same,HFIP (average ratio area of HFIP/area of toluene),[1]; [11],0.04694
same,Total Impurity (average sum of ratios area of each impurity/area of toluene),[1]; [11],0.2925
same,HFIP (average ratio area of HFIP/area of toluene),[1]; [12],0.04603
same,Total Impurity (average sum of ratios area of each impurity/area of toluene),[1]; [12],0.3158
same,HFIP (average ratio area of HFIP/area of toluene),[1]; [13],0.04038
same,Total Impurity (average sum of ratios area of each impurity/area of toluene),[1]; [13],0.3800
same,HFIP (average ratio area of HFIP/area of toluene),[1]; [14],0.04353
same,Total Impurity (average sum of ratios area of each impurity/area of toluene),[1]; [14],0.3189
same,HFIP (average ratio area of HFIP/area of toluene),[1]; [15],0.04159
same,Total Impurity (average sum of ratios area of each impurity/area of toluene),[1]; [15],0.3061
same,HFIP (average ratio area of HFIP/area of toluene),[1]; [16],0.04236
same,Total Impurity (average sum of ratios area of each impurity/area of toluene),[1]; [16],0.3235
same,HFIP (average ratio area of HFIP/area of toluene),[1]; [21],0.00338
same,Total Impurity (average sum of ratios area of each impurity/area of toluene),[1]; [21],0.3236
same,HFIP (average ratio area of HFIP/area of toluene),[1]; [22],0.02051
same,Total Impurity (average sum of ratios area of each impurity/area of toluene),[1]; [22],0.3963
same,saturation level in sevoflurane,[2],around 2.5%
same,degradation of sevoflurane by alumina,[3]; [17],didn't show any degradation
same,Compound A,[3]; [18],11.3 µg/g
same,Purity,[3]; [18],99.9774%
same,Single impurity,[3]; [18],61.7 µg/g
same,Total Impurity,[3]; [18],226.3 µg/g
same,Limit of fluoride,[4]; [20],0.051 µg/mL
"FCOC(C(F)(F)F)C(F)(F)F [Anhydrous Sevoflurane, fluoromethyl 2,2,2-trifluoro-1-(trifluoromethyl)ethyl ether]",Compound A,[3]; [23],11.2 µg/g
same,Purity,[3]; [23],99.9798%
same,Single impurity,[3]; [23],63.7 µg/g
same,Total Impurity,[3]; [23],201.8 µg/g
same,Purity,[3]; [24],99.9907%
same,Single impurity,[3]; [24],42.1 µg/g
same,Total impurities,[3]; [24],93.0 µg/g
same,Limit of fluoride,"[4]; Table 5, initial analysis of anhydrous sevoflurane before stress",0.050 µg/mL
same,Limit of fluoride,[4]; [24],0.072 µg/mL
